Values quoted from earlier work as cited in patent publication US20060287529A1, “Solid phase synthesis of antitumoral compounds” (priority 2003, published 2006).

Key:
fertilised sea urchin = fertilised sea urchin assay; background statement
A549 cell line = A549 cell line in culture; background statement
P388 cell line = P388 cell line in culture; background statement
lung cancer cell lines = settings: acting as a Type IV microtubule poison; background statement

In the case of `COc1cc(-c2c3n(c4c(=O)oc5cc(O)c(OC)cc5c24)CCc2c-3cc(OC)c(OC)c2OC)ccc1O` [lamellarin C], the “inhibition of cell division” value (fertilised sea urchin) is given as “inhibition of cell division”.
In the case of `COc1ccc(-c2c3n(c4c(=O)oc5cc(O)c(OC)cc5c24)CCc2cc(O)c(OC)cc2-3)cc1O` [lamellarin L, 8,9-dihydro-3,11-dihydroxy-2,12-dimethoxy-14-(3′-hydroxy-4′-methoxy-phenyl)-6H-[1]benzopyrano[4′,3′:4,5]pyrrolo[2,1-α]isoquinolin-6-one], the cytotoxicity (A549 cell line) is given as “comparable cytoxicity” and the cytotoxicity (P388 cell line) is given as “comparable cytoxicity”.
In the case of `COc1ccc(-c2c3c4cc(OC)c(O)cc4oc(=O)c3n3ccc4cc(O)c(OC)cc4c23)cc1O` [lamellarin N, 3,10-dihydroxy-2,12-dimethoxy-14-(3′-hydroxy-4′-methoxy-phenyl)-6H-[1]benzopyrano[4′,3′:4,5]pyrrolo[2,1-α]isoquinolin-6-one], the “activity in lung cancer cell lines” value (lung cancer cell lines) is given as “exhibit activity”.
In the case of lamellarin D, the “inhibition of cell division” value (fertilised sea urchin) is listed as “inhibition of cell division”.
In the case of lamellarin I, the cytotoxicity (A549 cell line) is listed as “comparable cytoxicity” and the cytotoxicity (P388 cell line) is listed as “comparable cytoxicity”.
In the case of lamellarin K, the cytotoxicity (A549 cell line) is given as “comparable cytoxicity” and the cytotoxicity (P388 cell line) is given as “comparable cytoxicity”.
